In brackets after ≈: the same amount, converted by molar mass.
Key:
[1] = In vivo toxicity in uninfected mice; settings: uninfected mice
Procedure: The in vivo antibacterial activity of antibiotic LL-E19020 Gamma is established by infecting female CD-1 mice from Charles River Laboratories, weighing 20±2 g each, intraperitoneally with either 2.0 X 10^2 CFU/0.5 ml Streptococcus pyogenes C203 suspended in broth or 2.8 X 10^6 CFU/0.5 ml Straphylococcus aureus Smith suspended in 5% hog gastric mucin. The mice were treated subcutaneously, 30 minutes after infection with the indicated dose of the test compound in 0.5 ml of 0.2% aqueous agar. Toxicity studies were performed administering the same treatment to uninfected mice.

[2] = test system: non-enterococcal streptococci; experiment: MIC by agar dilution, summary for non-enterococcal streptococci; assay type: cell-based; settings: 18 h; text summary: relatively good activity against non-enterococcal streptococci
Procedure: (§1) The in vitro antibacterial activity of LL-E19020 Gamma is determined against a spectrum of gram positive and gram negative bacteria by a standard agar dilution method. Mueller-Hinton agar containing 5% sheep blood and two-fold decreasing concentrations of LL-E19020 Gamma is poured into petri dishes. The agar surfaces are inoculated with 1 to 5X10^4 colony forming units of bacteria by means of the Steers replicating device. The lowest concentration of antibiotic that inhibits growth of a bacterial strain after 18 hours incubation is recorded as the minimal inhibitory concentration for that strain.
• 1. Serial two-flow dilutions of drug are prepared in Mueller-Hinton broth in a range of 2560 µg/ml-0.15 µg/ml plus a solvent control. • 2. Two milliliters of drug dilution (10X) are added to sterile screw cap bottles to which 18 ml of Mueller-Hinton agar containing 5.6% defibrinated sheep blood is added. Final drug concentration ranges 256 µg/ml-0.015 µg/ml in agar containing 5% sheep blood. • 3. A few isolated colonies of each test organism are inoculated into 5 ml trypticase soy broth or brain heart infusion broth. The cultures are shaken at 35 °C. for 5 hours. • 4. Each culture is diluted 1:50 (10^-1.7) in Mueller-Hinton broth and applied to agar plates using a Steers replicator. Control plates should be seeded last to ensure that viable organisms are present throughout the procedure. […]

[3] = test system: Staphylococcus aureus VGH 84-47; experiment: MIC by agar dilution; assay type: cell-based; settings: VGH8447, 18 h, read-out: MINIMAL INHIBITORY CONCENTRATION
Procedure: as §1
(§2) • 1. Serial two-flow dilutions of drug are prepared in Mueller-Hinton broth in a range of 2560 µg/ml-0.15 µg/ml plus a solvent control. • 2. Two milliliters of drug dilution (10X) are added to sterile screw cap bottles to which 18 ml of Mueller-Hinton agar containing 5.6% defibrinated sheep blood is added. Final drug concentration ranges 256 µg/ml-0.015 µg/ml in agar containing 5% sheep blood. • 3. A few isolated colonies of each test organism are inoculated into 5 ml trypticase soy broth or brain heart infusion broth. The cultures are shaken at 35 °C. for 5 hours. • 4. Each culture is diluted 1:50 (10^-1.7) in Mueller-Hinton broth and applied to agar plates using a Steers replicator. Control plates should be seeded last to ensure that viable organisms are present throughout the procedure. Inoculated agar plates are allowed to stand undisturbed until the inoculum spots are completely absorbed. • 5. The plates are inverted and incubated at 35 °C. for 18 hours with CO2. • 6. The minimum inhibitory concentration (MIC) is taken as the lowest concentration of antimicrobial agent at which complete inhibition of antimicrobial agent at which complete inhibition occurs. A very fine, barely visible haze or a single colony is disregarded.

[4] = test system: Staphylococcus aureus IVES 160; experiment: MIC by agar dilution; assay type: cell-based; settings: IVES160, Mueller-Hinton agar, 5% sheep blood, 18 hours, read-out: MINIMAL INHIBITORY CONCENTRATION
Procedure: as §1, §2

[5] = test system: Enterococcus spp. VGH 84-69; experiment: MIC by agar dilution; assay type: cell-based; settings: Mueller-Hinton agar, 5% sheep blood, 18 hours, read-out: MINIMAL INHIBITORY CONCENTRATION
Procedure: as §1, §2

[6] = test system: Staphylococcus aureus ATCC 29213; experiment: MIC by agar dilution; assay type: cell-based; settings: ATCC29213, Mueller-Hinton agar, 5% sheep blood, 18 hours, read-out: MINIMAL INHIBITORY CONCENTRATION
Procedure: as §1, §2

[7] = test system: Streptococcus pyogenes AMCH 88-84; experiment: MIC by agar dilution; assay type: cell-based; settings: AMCH8884, Mueller-Hinton agar, 5% sheep blood, 18 hours, read-out: MINIMAL INHIBITORY CONCENTRATION
Procedure: as §1, §2

[8] = test system: Streptococcus pneumoniae CHBM 88-75; experiment: MIC by agar dilution; assay type: cell-based; settings: CHBM8875, Mueller-Hinton agar, 5% sheep blood, 18 hours, read-out: MINIMAL INHIBITORY CONCENTRATION
Procedure: as §1, §2

[9] = test system: Streptococcus pyogenes AMCH 88-86; experiment: MIC by agar dilution; assay type: cell-based; settings: AMCH8886, Mueller-Hinton agar, 5% sheep blood, 18 hours, read-out: MINIMAL INHIBITORY CONCENTRATION
Procedure: as §1, §2

[10] = test system: Staphylococcus aureus NEMC 87-69; experiment: MIC by agar dilution; assay type: cell-based; settings: NEMC8769, Mueller-Hinton agar, 5% sheep blood, 18 hours, read-out: MINIMAL INHIBITORY CONCENTRATION
Procedure: as §1, §2

[11] = test system: Klebsiella pneumoniae NEMC 87-271; experiment: MIC by agar dilution; assay type: cell-based; settings: NEMC87271, Mueller-Hinton agar, 5% sheep blood, 18 hours, read-out: MINIMAL INHIBITORY CONCENTRATION
Procedure: as §1, §2

[12] = test system: Enterococcus spp. CMC 83-120; experiment: MIC by agar dilution; assay type: cell-based; settings: Mueller-Hinton agar, 5% sheep blood, 18 hours, read-out: MINIMAL INHIBITORY CONCENTRATION
Procedure: as §1, §2

Bacillus cereus DAVIES = experiment: MIC by agar dilution; assay type: cell-based; settings: Mueller-Hinton agar, 5% sheep blood, 18 hours, read-out: MINIMAL INHIBITORY CONCENTRATION
Procedure: as §1, §2

[13] = test system: Streptococcus pneumoniae TEX 85-2; experiment: MIC by agar dilution; assay type: cell-based; settings: TEX852, Mueller-Hinton agar, 5% sheep blood, 18 hours, read-out: MINIMAL INHIBITORY CONCENTRATION
Procedure: as §1, §2

[14] = test system: Staphylococcus aureus ATCC 25923; experiment: MIC by agar dilution; assay type: cell-based; settings: ATCC25923, Mueller-Hinton agar, 5% sheep blood, 18 hours, read-out: MINIMAL INHIBITORY CONCENTRATION
Procedure: as §1, §2

[15] = test system: Staphylococcus aureus IVES 396; experiment: MIC by agar dilution; assay type: cell-based; settings: IVES396, Mueller-Hinton agar, 5% sheep blood, 18 hours, read-out: MINIMAL INHIBITORY CONCENTRATION
Procedure: as §1, §2

[16] = test system: Escherichia coli ATCC 25922; experiment: MIC by agar dilution; assay type: cell-based; settings: ATCC25922, Mueller-Hinton agar, 5% sheep blood, 18 hours, read-out: MINIMAL INHIBITORY CONCENTRATION
Procedure: as §1, §2

[17] = test system: Enterococcus spp. CHBM 88-60; experiment: MIC by agar dilution; assay type: cell-based; settings: Mueller-Hinton agar, 5% sheep blood, 18 hours, read-out: MINIMAL INHIBITORY CONCENTRATION
Procedure: as §1, §2

[18] = test system: Enterococcus spp. WRVA 88-33; experiment: MIC by agar dilution; assay type: cell-based; settings: Mueller-Hinton agar, 5% sheep blood, 18 hours, read-out: MINIMAL INHIBITORY CONCENTRATION
Procedure: as §1, §2

[19] = test system: Staphylococcus epidermidis IVES 455; experiment: MIC by agar dilution; assay type: cell-based; settings: IVES455, Mueller-Hinton agar, 5% sheep blood, 18 hours, read-out: MINIMAL INHIBITORY CONCENTRATION
Procedure: as §1, §2

[20] = test system: Enterococcus spp. UCI 85-30; experiment: MIC by agar dilution; assay type: cell-based; settings: Mueller-Hinton agar, 5% sheep blood, 18 hours, read-out: MINIMAL INHIBITORY CONCENTRATION
Procedure: as §1, §2

[21] = test system: Streptococcus pyogenes C203 (MP); experiment: MIC by agar dilution; assay type: cell-based; settings: Mueller-Hinton agar, 5% sheep blood, 18 hours, read-out: MINIMAL INHIBITORY CONCENTRATION
Procedure: as §1, §2

[22] = test system: Staphylococcus aureus ROSE (MP); experiment: MIC by agar dilution; assay type: cell-based; settings: Mueller-Hinton agar, 5% sheep blood, 18 hours, read-out: MINIMAL INHIBITORY CONCENTRATION
Procedure: as §1, §2

[23] = test system: Escherichia coli ATCC 35218; experiment: MIC by agar dilution; assay type: cell-based; settings: ATCC35218, 18 h, read-out: MINIMAL INHIBITORY CONCENTRATION
Procedure: as §1, §2

[24] = test system: Staphylococcus aureus SMITH (MP); experiment: MIC by agar dilution; assay type: cell-based; settings: Mueller-Hinton agar, 5% sheep blood, 18 hours, read-out: MINIMAL INHIBITORY CONCENTRATION
Procedure: as §1, §2

[25] = test system: Staphylococcus aureus CMC 83-131; experiment: MIC by agar dilution; assay type: cell-based; settings: CMC83131, Mueller-Hinton agar, 5% sheep blood, 18 hours, read-out: MINIMAL INHIBITORY CONCENTRATION
Procedure: as §1, §2

[26] = test system: Staphylococcus haemolyticus AVAH 88-1; experiment: MIC by agar dilution; assay type: cell-based; settings: AVAH881, Mueller-Hinton agar, 5% sheep blood, 18 hours, read-out: MINIMAL INHIBITORY CONCENTRATION
Procedure: as §1, §2

[27] = test system: Staphylococcus haemolyticus AVAH 88-3; experiment: MIC by agar dilution; assay type: cell-based; settings: AVAH883, Mueller-Hinton agar, 5% sheep blood, 18 hours, read-out: MINIMAL INHIBITORY CONCENTRATION
Procedure: as §1, §2

[28] = test system: Streptococcus pneumoniae SV-1 (MP); experiment: MIC by agar dilution; assay type: cell-based; settings: Mueller-Hinton agar, 5% sheep blood, 18 hours, read-out: MINIMAL INHIBITORY CONCENTRATION
Procedure: as §1, §2

[29] = test system: Pseudomonas aeruginosa 12-4-4 (MP); experiment: MIC by agar dilution; assay type: cell-based; settings: Mueller-Hinton agar, 5% sheep blood, 18 hours, read-out: MINIMAL INHIBITORY CONCENTRATION
Procedure: as §1, §2

[30] = test system: Enterococcus spp. ARUM 87-41; experiment: MIC by agar dilution; assay type: cell-based; settings: Mueller-Hinton agar, 5% sheep blood, 18 hours, read-out: MINIMAL INHIBITORY CONCENTRATION
Procedure: as §1, §2

## C/C=C\C=C\C1OC(O)(C(COC2CC(OC)C(OC3CC(OC)C(OC4CC(OC)C(O)C(C)O4)C(C)O3)C(C)O2)C(=O)NC/C=C/C=C(\C)C(OC)C(C)C2CC(O)C(/C=C/C=C/C=C/C(=O)O)O2)C(OC(=O)Cc2ccc(O)cc2)C(O)C1(C)C (centres unmarked) [LL-E19020 Gamma]
[1]; 32 MG/KG
  In Vivo Toxicity: Survival Ratio 7 Days After Administration Of Single Subcutaneous Dose: 2/2
[1]; 64 MG/KG
  In Vivo Toxicity: Survival Ratio 7 Days After Administration Of Single Subcutaneous Dose: 2/2
[2]
  MIC: 0.12 to 16 µg/mL (≈ 0.0966 to 12.9 µM)
[3]
  MIC: 64 µg/mL (≈ 51.5 µM)
[4]
  MIC: 32 µg/mL (≈ 25.8 µM)
[5]
  MIC: 16 µg/mL (≈ 12.9 µM)
[6]
  MIC: 128 µg/mL (≈ 103 µM)
[7]
  MIC: 0.12 µg/mL (≈ 0.0966 µM)
[8]
  MIC: 16 µg/mL (≈ 12.9 µM)
[9]
  MIC: 0.5 µg/mL (≈ 0.402 µM)
[10]
  MIC: 32 µg/mL (≈ 25.8 µM)
[11]
  MIC: > 128 µg/mL
[12]
  MIC: 16 µg/mL (≈ 12.9 µM)
Bacillus cereus DAVIES
  MIC: 32 µg/mL (≈ 25.8 µM)
[13]
  MIC: 0.5 µg/mL (≈ 0.402 µM)
[14]
  MIC: > 128 µg/mL
[15]
  MIC: 64 µg/mL (≈ 51.5 µM)
[16]
  MIC: > 128 µg/mL
[17]
  MIC: 16 µg/mL (≈ 12.9 µM)
[18]
  MIC: 16 µg/mL (≈ 12.9 µM)
[19]
  MIC: 16 µg/mL (≈ 12.9 µM)
[20]
  MIC: 16 µg/mL (≈ 12.9 µM)
[21]
  MIC: 0.12 µg/mL (≈ 0.0966 µM)
[22]
  MIC: 32 µg/mL (≈ 25.8 µM)
[23]
  MIC: > 128 µg/mL
[24]
  MIC: 128 µg/mL (≈ 103 µM)
[25]
  MIC: 64 µg/mL (≈ 51.5 µM)
[26]
  MIC: 64 µg/mL (≈ 51.5 µM)
[27]
  MIC: 16 µg/mL (≈ 12.9 µM)
[28]
  MIC: 0.12 µg/mL (≈ 0.0966 µM)
[29]
  MIC: > 128 µg/mL
[30]
  MIC: 8 µg/mL (≈ 6.44 µM)
